Assay results from ChEMBL document CHEMBL1144292, “Estrogen receptor ligands. Part 11: Synthesis and activity of isochromans and isothiochromans” (Bioorg Med Chem Lett, 2005).
pIC50: −log10 of the molar value.

Columns and labels:
Estrogen receptor beta = Estrogen receptor beta (Homo sapiens, UniProt Q92731)
Description: Binding affinity for human estrogen receptor beta

Estrogen receptor [1] = target: Estrogen receptor (Homo sapiens, UniProt Q92731+P03372); conditions: mcf-7
Description: Inhibition of MCF-7 cell proliferation

Estrogen receptor [2] = target: T1, Estrogen receptor (Homo sapiens, UniProt P03372)
T1 sequence (P03372 whole entry): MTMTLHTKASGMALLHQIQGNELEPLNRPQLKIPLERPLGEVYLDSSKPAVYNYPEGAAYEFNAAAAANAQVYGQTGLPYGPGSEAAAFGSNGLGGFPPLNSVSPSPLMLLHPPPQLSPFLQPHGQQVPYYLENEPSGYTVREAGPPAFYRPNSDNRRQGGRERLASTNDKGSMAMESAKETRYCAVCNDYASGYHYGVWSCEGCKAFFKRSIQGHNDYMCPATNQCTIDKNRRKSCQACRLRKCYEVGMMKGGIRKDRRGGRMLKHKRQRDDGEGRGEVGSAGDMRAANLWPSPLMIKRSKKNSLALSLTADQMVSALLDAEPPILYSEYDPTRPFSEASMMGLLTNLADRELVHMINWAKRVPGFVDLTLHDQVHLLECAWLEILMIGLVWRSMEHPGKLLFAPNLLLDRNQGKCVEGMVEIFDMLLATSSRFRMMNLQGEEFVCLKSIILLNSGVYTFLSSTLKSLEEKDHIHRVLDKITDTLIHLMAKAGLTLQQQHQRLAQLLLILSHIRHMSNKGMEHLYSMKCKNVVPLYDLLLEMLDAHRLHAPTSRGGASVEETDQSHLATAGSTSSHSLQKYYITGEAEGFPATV
Description: Binding affinity for human estrogen receptor alpha

Estrogen receptor beta, sequence (Q92731 whole entry): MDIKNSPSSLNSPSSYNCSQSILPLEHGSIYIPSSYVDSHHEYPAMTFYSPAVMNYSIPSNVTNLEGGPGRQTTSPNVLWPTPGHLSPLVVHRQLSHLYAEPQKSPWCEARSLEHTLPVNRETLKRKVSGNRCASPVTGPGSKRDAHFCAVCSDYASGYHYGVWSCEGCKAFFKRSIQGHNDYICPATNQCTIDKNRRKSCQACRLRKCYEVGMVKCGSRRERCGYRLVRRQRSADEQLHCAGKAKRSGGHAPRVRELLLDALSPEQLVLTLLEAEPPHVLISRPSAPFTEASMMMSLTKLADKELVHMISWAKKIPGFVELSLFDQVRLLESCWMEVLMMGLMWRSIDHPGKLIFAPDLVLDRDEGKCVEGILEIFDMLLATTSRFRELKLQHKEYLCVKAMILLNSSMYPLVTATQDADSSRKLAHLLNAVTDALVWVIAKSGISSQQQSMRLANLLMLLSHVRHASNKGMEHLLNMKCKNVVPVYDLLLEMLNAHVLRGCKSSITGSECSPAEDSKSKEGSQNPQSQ

Row | Structure (SMILES) | pIC50 (Estrogen receptor beta) | IC50 (Estrogen receptor [1]) | pIC50 (Estrogen receptor [2])
1 | COc1ccc2c(c1)CO[C@H](c1ccccc1)[C@@H]2c1ccc(OCCN2CCCC2)cc1 | 6.50 | 57 nM | 7.41
2 | COc1ccc2c(c1)CS[C@H](c1ccccc1)[C@@H]2c1ccc(OCCN2CCCC2)cc1 | 6.96 | 164 nM | 7.89
3 | Oc1ccc2c(c1)CO[C@H](c1ccccc1)[C@@H]2c1ccc(OCCN2CCCC2)cc1 | 8.44 | 0.15 nM | 8.62
4 | Oc1ccc2c(c1)CS[C@H](c1ccccc1)[C@@H]2c1ccc(OCCN2CCCC2)cc1 | 8.68 | 0.25 nM | 9.22
